Results published in patent US3991053A.
Converted amounts (≈) assume the structure as drawn.

These molecules were tested on Salmonella choleraesuis (assay: In vivo protection of mice infected intraperitoneally with Salmonella choleraesuis). Conditions: oral (PO), multiple dosing, 25 mg./kg., percentage of animals which survive.
Experimental: (§1) In determining the in vivo activity of the compounds of the invention, the test compound is administered to mice which have been infected by intraperitoneal injection of a lethal inoculum of pathogenic bacteria. The test compound is administered using a multiple dosing regimen, using either the oral (PO) or the subcutaneous (SC) route. The inoculum of bacteria varies from one to about ten times the amount needed to kill 100% of the mice, under the conditions of the test. At the end of the test, the activity of a compound is assessed by counting the number of survivors among the treated animals, and expressing the activity of a compound as the percentage of animals which survive. In Table I, in vivo activities of several of the compounds of this invention against Salmonella choleraesuis and Pasteurella multocida are presented. | *The dosage of test compound in the protection studies using Salmonnella | choleraesuis was 25 mg./kg. of body weight, and using Pasteurella | multocida it was 50 mg./kg. of body weight.

First: CC1(OCc2ccccc2)OCc2c1[n+]([O-])c1ccccc1[n+]2[O-] (centres unmarked) [1-Benzyloxy-1-methyl-1,3-dihydrofuro[3,4-b]quinoxaline 4,9-Dioxide]
Second: CCOC1(C)OCc2c1[n+]([O-])c1ccccc1[n+]2[O-] (centres unmarked) [1-Ethoxy-1-methyl-1,3-dihydrofuro[3,4-b]quinoxaline 4,9-Dioxide]
The “Percentage protection Sal. choleraesuis PO” value of the first is lower: 40% for the first, 70% for the second.

`CC1(O)OCc2c1[n+]([O-])c1ccccc1[n+]2[O-]` (centres unmarked) [1-Hydroxy-1-methyl-1,3-dihydrofuro[3,4-b]quinoxaline 4,9-dioxide] and `COC1(C)OCc2c1[n+]([O-])c1ccccc1[n+]2[O-]` (centres unmarked) [1-Methoxy-1-methyl-1,3-dihydrofuro[3,4-b]quinoxaline 4,9-Dioxide] are the same in “Percentage protection Sal. choleraesuis PO” value: 100% for the first, 100% for the second.

Same assay, conditions: subcutaneous (SC), multiple dosing, 25 mg./kg., percentage of animals which survive

Compared with `CC1(OCc2ccccc2)OCc2c1[n+]([O-])c1ccccc1[n+]2[O-]` (centres unmarked) [1-Benzyloxy-1-methyl-1,3-dihydrofuro[3,4-b]quinoxaline 4,9-Dioxide], `CCOC1(C)OCc2c1[n+]([O-])c1ccccc1[n+]2[O-]` (centres unmarked) [1-Ethoxy-1-methyl-1,3-dihydrofuro[3,4-b]quinoxaline 4,9-Dioxide] is lower in “Percentage protection Sal. choleraesuis SC” value: 60% for the first, 50% for the second.

`CC1(O)OCc2c1[n+]([O-])c1ccccc1[n+]2[O-]` (centres unmarked) [1-Hydroxy-1-methyl-1,3-dihydrofuro[3,4-b]quinoxaline 4,9-dioxide] and `COC1(C)OCc2c1[n+]([O-])c1ccccc1[n+]2[O-]` (centres unmarked) [1-Methoxy-1-methyl-1,3-dihydrofuro[3,4-b]quinoxaline 4,9-Dioxide] are the same in “Percentage protection Sal. choleraesuis SC” value: 100% for the first, 100% for the second.

These molecules were tested on Pasteurella multocida (assay: In vivo protection of mice infected intraperitoneally with Pasteurella multocida). Conditions: oral (PO), multiple dosing, 50 mg./kg., percentage of animals which survive.
Experimental: as §1

Going from `CC1(O)OCc2c1[n+]([O-])c1ccccc1[n+]2[O-]` (centres unmarked) [1-Hydroxy-1-methyl-1,3-dihydrofuro[3,4-b]quinoxaline 4,9-dioxide] to `COC1(C)OCc2c1[n+]([O-])c1ccccc1[n+]2[O-]` (centres unmarked) [1-Methoxy-1-methyl-1,3-dihydrofuro[3,4-b]quinoxaline 4,9-Dioxide], the “Percentage protection Past. multocida PO” value falls from 100% to 90%.

Same assay, conditions: subcutaneous (SC), multiple dosing, 50 mg./kg., percentage of animals which survive

`CC1(O)OCc2c1[n+]([O-])c1ccccc1[n+]2[O-]` (centres unmarked) [1-Hydroxy-1-methyl-1,3-dihydrofuro[3,4-b]quinoxaline 4,9-dioxide] and `COC1(C)OCc2c1[n+]([O-])c1ccccc1[n+]2[O-]` (centres unmarked) [1-Methoxy-1-methyl-1,3-dihydrofuro[3,4-b]quinoxaline 4,9-Dioxide] are the same in “Percentage protection Past. multocida SC” value: 100% for the first, 100% for the second.

What follows are molecules tested on Escherichia coli (assay: In vitro MIC, two-fold serial dilution in Brain-Heart Infusion Broth, Escherichia coli). Conditions: read-out: MIC (minimum inhibitory concentration) Esch. coli.

`CC1(OCc2ccccc2)OCc2c1[n+]([O-])c1ccccc1[n+]2[O-]` (centres unmarked) [1-Benzyloxy-1-methyl-1,3-dihydrofuro[3,4-b]quinoxaline 4,9-Dioxide] and `CCOC1(C)OCc2c1[n+]([O-])c1ccccc1[n+]2[O-]` (centres unmarked) [1-Ethoxy-1-methyl-1,3-dihydrofuro[3,4-b]quinoxaline 4,9-Dioxide] are the same in MIC: 12.5 µg/mL (≈ 38.5 µM) for the first, 12.5 µg/mL (≈ 47.7 µM) for the second.

Compared with `CC1(O)OCc2c1[n+]([O-])c1ccccc1[n+]2[O-]` (centres unmarked) [1-Hydroxy-1-methyl-1,3-dihydrofuro[3,4-b]quinoxaline 4,9-dioxide], `COC1(C)OCc2c1[n+]([O-])c1ccccc1[n+]2[O-]` (centres unmarked) [1-Methoxy-1-methyl-1,3-dihydrofuro[3,4-b]quinoxaline 4,9-Dioxide] is 2-fold higher in MIC: 1.56 µg/mL (≈ 6.66 µM) for the first, 3.12 µg/mL (≈ 12.6 µM) for the second.

Each molecule was assayed on Pasteurella multocida (assay: In vitro MIC, two-fold serial dilution in Brain-Heart Infusion Broth, Pasteurella multocida). Conditions: read-out: MIC (minimum inhibitory concentration) Past. multocida.

Compared with `CC1(OCc2ccccc2)OCc2c1[n+]([O-])c1ccccc1[n+]2[O-]` (centres unmarked) [1-Benzyloxy-1-methyl-1,3-dihydrofuro[3,4-b]quinoxaline 4,9-Dioxide], `CCOC1(C)OCc2c1[n+]([O-])c1ccccc1[n+]2[O-]` (centres unmarked) [1-Ethoxy-1-methyl-1,3-dihydrofuro[3,4-b]quinoxaline 4,9-Dioxide] is 4-fold higher in MIC: 3.12 µg/mL (≈ 9.62 µM) for the first, 12.5 µg/mL (≈ 47.7 µM) for the second.

Going from `CC1(O)OCc2c1[n+]([O-])c1ccccc1[n+]2[O-]` (centres unmarked) [1-Hydroxy-1-methyl-1,3-dihydrofuro[3,4-b]quinoxaline 4,9-dioxide] to `COC1(C)OCc2c1[n+]([O-])c1ccccc1[n+]2[O-]` (centres unmarked) [1-Methoxy-1-methyl-1,3-dihydrofuro[3,4-b]quinoxaline 4,9-Dioxide], the MIC falls from 12.5 µg/mL (≈ 53.4 µM) to 3.12 µg/mL (≈ 12.6 µM) (4-fold).

What follows are molecules tested on Streptococcus pyogenes (assay: In vitro MIC, two-fold serial dilution in Brain-Heart Infusion Broth, Streptococcus pyogenes). Conditions: read-out: MIC (minimum inhibitory concentration) Strep. pyogenes.

Going from `CC1(OCc2ccccc2)OCc2c1[n+]([O-])c1ccccc1[n+]2[O-]` (centres unmarked) [1-Benzyloxy-1-methyl-1,3-dihydrofuro[3,4-b]quinoxaline 4,9-Dioxide] to `CCOC1(C)OCc2c1[n+]([O-])c1ccccc1[n+]2[O-]` (centres unmarked) [1-Ethoxy-1-methyl-1,3-dihydrofuro[3,4-b]quinoxaline 4,9-Dioxide], the MIC falls from 6.25 µg/mL (≈ 19.3 µM) to 3.12 µg/mL (≈ 11.9 µM) (2-fold).

`CC1(O)OCc2c1[n+]([O-])c1ccccc1[n+]2[O-]` (centres unmarked) [1-Hydroxy-1-methyl-1,3-dihydrofuro[3,4-b]quinoxaline 4,9-dioxide] and `COC1(C)OCc2c1[n+]([O-])c1ccccc1[n+]2[O-]` (centres unmarked) [1-Methoxy-1-methyl-1,3-dihydrofuro[3,4-b]quinoxaline 4,9-Dioxide] are the same in MIC: 0.78 µg/mL (≈ 3.33 µM) for the first, 0.78 µg/mL (≈ 3.14 µM) for the second.

These molecules were tested on Salmonella choleraesuis (assay: In vitro MIC, two-fold serial dilution in Brain-Heart Infusion Broth, Salmonella choleraesuis). Conditions: Salmonella enterica, read-out: MIC (minimum inhibitory concentration) Sal. choleraesuis.

`CC1(OCc2ccccc2)OCc2c1[n+]([O-])c1ccccc1[n+]2[O-]` (centres unmarked) [1-Benzyloxy-1-methyl-1,3-dihydrofuro[3,4-b]quinoxaline 4,9-Dioxide] and `CCOC1(C)OCc2c1[n+]([O-])c1ccccc1[n+]2[O-]` (centres unmarked) [1-Ethoxy-1-methyl-1,3-dihydrofuro[3,4-b]quinoxaline 4,9-Dioxide] are the same in MIC: 12.5 µg/mL (≈ 38.5 µM) for the first, 12.5 µg/mL (≈ 47.7 µM) for the second.

`CC1(O)OCc2c1[n+]([O-])c1ccccc1[n+]2[O-]` (centres unmarked) [1-Hydroxy-1-methyl-1,3-dihydrofuro[3,4-b]quinoxaline 4,9-dioxide] and `COC1(C)OCc2c1[n+]([O-])c1ccccc1[n+]2[O-]` (centres unmarked) [1-Methoxy-1-methyl-1,3-dihydrofuro[3,4-b]quinoxaline 4,9-Dioxide] are the same in MIC: 1.56 µg/mL (≈ 6.66 µM) for the first, 1.56 µg/mL (≈ 6.28 µM) for the second.

These molecules were tested on Treponema hyodysenteriae (assay: In vitro MIC, two-fold serial dilution in Brain-Heart Infusion Broth, Treponema hyodysenteriae). Conditions: Brachyspira hyodysenteriae, read-out: MIC (minimum inhibitory concentration) Trep. hyodysenteriae.

Molecule `CC1(O)OCc2c1[n+]([O-])c1ccccc1[n+]2[O-]` (centres unmarked) [1-Hydroxy-1-methyl-1,3-dihydrofuro[3,4-b]quinoxaline 4,9-dioxide] has an MIC of 0.09 µg/mL (≈ 0.384 µM).
